No end group written: not given here.
Legend:
Format in all cases: in vivo, C57b1/6 mice
blood cells = assay: Viable blood cell count in gamma-irradiated mice; settings: Substance-P administered before or after radiation-induced bone marrow damage
Text: (§1) In order to ascertain protective and regenerative effects of Substance-P on bone marrow, 8-week-old C57b1/6 mice were purchased as experimental animals and divided into three groups, each consisting of 6 animals (n=6): two experimental groups (administration of a test drug before and after induction of bone marrow damage) and a control group. For this purpose, bone marrow damage was induced by radiation in animals.
(§2) For the group used to confirm bone marrow-protective effects of Substance-P, 0.1 nmol/g of Substance-P was injected into caudal vein of mice, 1 day prior to radiation. 24 hours later, animals were irradiated with a gamma irradiator at a dose of 4 Gy. 4 hours after irradiation, 0.1 nmol/g of Substance-P diluted in PBS was injected once more into caudal vein of mice. Substance-P was diluted in PBS prior to use thereof.
(§3) For the group used to confirm bone marrow-regenerative effects of Substance-P, 0.1 nmol/g of Substance-P was intravenously administered to caudal veins of mice immediately after animals were irradiated with gamma rays. 24 hours later, Substance-P was intravenously administered once more to animals.
Blood cells were isolated from animals 3 and 7 days after irradiation treatment was complete. For this purpose, whole blood (WB) was isolated from abdominal vena cava using a 26-gauge syringe. […]

[1] = tested on: hematopoietic stem cell colony formation of bone marrow cells; assay: CFU assay of bone marrow cells from irradiated mice in HSC-CFU media
Text: as §1, §2, §3
(§4) Bone marrow cells were isolated from animals 3 and 7 days after irradiation. For this purpose, femurs were isolated from mice and defatted to obtain the femoral bones only. A medium was allowed to flow from one end of the bone to the other end thereof using a 26-gauge syringe. This procedure was repeated five times to ensure that bone marrow cells were completely extracted from the bone. The cells were pooled in a tube, and centrifuged at 1500 rpm for 5 min and washed two times with PBS. The viable cell count was performed and compared between the drug-administered groups (administration of Substance-P before and after irradiation) and the non-administered group.
When bone marrow cells and blood cells were prepared, the cells were inoculated onto 35 mm plates at a density of 3×10^3 bone marrow cells/plate and 5×10^6 blood cells/plate, respectively and cultured in hematopoietic stem cell-colony forming unit media (HSC-CFU media, available from Miltenyi). The cells were cultured without change of the culture medium for two weeks while a colony count was performed daily.

bone marrow cells = assay: Viable bone marrow cell count in gamma-irradiated mice
Text: as §1, §2, §3, §4

In the case of “Substance P (RPKPQQFFGLM; not fully specified; ends and bridges not checked; UniProt P20366 58-68, looked up) [Substance-P]”, the “number of blood cells vs non-administered group” value (blood cells) is reported as “significantly higher”, the “day from which colony formation was observable” value ([1]; Substance-P after irradiation) is reported as 5 post-irradiation day and the “colony count vs non-administered group” value ([1]; Substance-P after irradiation, 2-week culture, 14th post-irradiation day) is reported as “about 3 fold”. For the same substance, the colony formation ([1]; Substance-P after irradiation, 3rd post-irradiation day) was “no colony formation”, the colony count ([1]; Substance-P after irradiation, 7th post-irradiation day) was “significantly increased” and the “colony count vs non-administered group” value ([1]; Substance-P prior to irradiation, 2-week culture, 14th post-irradiation day) was “about 9 fold”. For the same substance, the “colony count vs non-administered group” value ([1]; Substance-P prior to irradiation, 3rd post-irradiation day) was “higher colony counts”, the “colony count vs non-administered group” value ([1]; Substance-P prior to irradiation, 7th post-irradiation day) was “higher colony counts” and the “colony count vs non-administered group” value ([1]; Substance-P prior to irradiation, immediately after irradiation) was “higher colony counts”. For the same substance, the “viable bone marrow cell count vs non-administered group” value (bone marrow cells; Substance-P 0.1 nmol/g i.v. 1 day prior to and 4 h after 4 Gy irradiation, 3rd post-irradiation day) was “no significant difference”, the “viable bone marrow cell count vs non-administered group” value (bone marrow cells; Substance-P 0.1 nmol/g i.v. 1 day prior to and 4 h after 4 Gy irradiation, after 7 days) was “about two-fold higher” and the “viable bone marrow cell count vs non-administered group” value (bone marrow cells; Substance-P 0.1 nmol/g i.v. immediately after irradiation and 24 h later, 3rd post-irradiation day) was “no significant difference”. The “viable bone marrow cell count vs non-administered group” value (bone marrow cells; Substance-P 0.1 nmol/g i.v. immediately after irradiation and 24 h later, after 7 days) was “about 2.5 fold”.
